Source: article PMC10937199 (ESMO Open, 2024)
Where two headings read alike, the source gives them in different places.

Legend:
[1] = test system: patients with advanced solid tumors; assay: Safety; assay type: in vivo, human; settings: Part A
advanced solid tumors = assay: Best overall response per RECIST version 1.1, Part FE; assay type: in vivo, human
[2] = Food effect on peposertib pharmacokinetics, Part FE; assay type: in vivo, human; settings: after a single dose, sampling did not cover tmax
[3] = test system: patients with advanced solid tumors; settings: Part A
[4] = 50-mg film-coated hot melt extrudate tablets; estimated; cited from earlier work
[5] = healthy volunteers; cited from earlier work

COc1ccc([C@@H](O)c2cc(-c3ncnc4cc(N5CCOCC5)ccc34)c(F)cc2Cl)nn1 [Peposertib]
9 (31.0%): Peposertib-related TEAE: nausea ([1]; all dose levels) | Peposertib-related TEAE: vomiting ([1]; all dose levels)
1 (25.0) n (%): Immune-related AE ([1]; 400 mg b.i.d., all grade) | Immune-related AE ([1]; 400 mg b.i.d., grade ≥3) | DLT by preferred term: Pneumonitis ([3]; 300 mg b.i.d.) | DLTs per patient: 1 ([3]; 300 mg b.i.d.) | Patients with DLT ([3]; 300 mg b.i.d.) | DLT by preferred term: Acute kidney injury ([3]; 400 mg b.i.d.) | DLT by preferred term: Febrile neutropenia ([3]; 400 mg b.i.d.) | DLT by preferred term: Neutropenia ([3]; 400 mg b.i.d.) | DLT by preferred term: Neutrophil count decreased ([3]; 400 mg b.i.d.) | DLT by preferred term: Pyrexia ([3]; 400 mg b.i.d.) | DLT by preferred term: Rash ([3]; 400 mg b.i.d.) | DLTs per patient: 1 ([3]; 400 mg b.i.d.) | DLTs per patient: 2 ([3]; 400 mg b.i.d.) | DLTs per patient: ≥3 ([3]; 400 mg b.i.d.)
33.3%: Best overall response of stable disease (SD) or non-CR/non-PD (advanced solid tumors; all dose levels)
0 n (%): IRR ([1]; 100 mg b.i.d., all grade) | Immune-related AE ([1]; 100 mg b.i.d., all grade) | Serious TEAE ([1]; 100 mg b.i.d., all grade) | Serious TEAE, peposertib related ([1]; 100 mg b.i.d., all grade) | Serious TEAE, treatment related ([1]; 100 mg b.i.d., all grade) | TEAEs leading to death ([1]; 100 mg b.i.d., all grade) | Treatment-related AE leading to death ([1]; 100 mg b.i.d., all grade) | IRR ([1]; 100 mg b.i.d., grade ≥3) | Immune-related AE ([1]; 100 mg b.i.d., grade ≥3) | Serious TEAE ([1]; 100 mg b.i.d., grade ≥3) | Serious TEAE, peposertib related ([1]; 100 mg b.i.d., grade ≥3) | Serious TEAE, treatment related ([1]; 100 mg b.i.d., grade ≥3) | TEAE ([1]; 100 mg b.i.d., grade ≥3) | TEAE, peposertib related ([1]; 100 mg b.i.d., grade ≥3) | TEAE, treatment related ([1]; 100 mg b.i.d., grade ≥3) | TEAEs leading to death ([1]; 100 mg b.i.d., grade ≥3) | Treatment-related AE leading to death ([1]; 100 mg b.i.d., grade ≥3) | Serious TEAE, peposertib related ([1]; 200 mg b.i.d., all grade) | TEAEs leading to death ([1]; 200 mg b.i.d., all grade) | Treatment-related AE leading to death ([1]; 200 mg b.i.d., all grade) | IRR ([1]; 200 mg b.i.d., grade ≥3) | Serious TEAE, peposertib related ([1]; 200 mg b.i.d., grade ≥3) | TEAEs leading to death ([1]; 200 mg b.i.d., grade ≥3) | Treatment-related AE leading to death ([1]; 200 mg b.i.d., grade ≥3) | IRR ([1]; 250 mg b.i.d., all grade) | TEAEs leading to death ([1]; 250 mg b.i.d., all grade) | Treatment-related AE leading to death ([1]; 250 mg b.i.d., all grade) | IRR ([1]; 250 mg b.i.d., grade ≥3) | TEAEs leading to death ([1]; 250 mg b.i.d., grade ≥3) | Treatment-related AE leading to death ([1]; 250 mg b.i.d., grade ≥3) | IRR ([1]; 300 mg b.i.d., all grade) | Serious TEAE, peposertib related ([1]; 300 mg b.i.d., all grade) | Treatment-related AE leading to death ([1]; 300 mg b.i.d., all grade) | IRR ([1]; 300 mg b.i.d., grade ≥3) | Serious TEAE, peposertib related ([1]; 300 mg b.i.d., grade ≥3) | TEAE, peposertib related ([1]; 300 mg b.i.d., grade ≥3) | Treatment-related AE leading to death ([1]; 300 mg b.i.d., grade ≥3) | IRR ([1]; 400 mg b.i.d., all grade) | TEAEs leading to death ([1]; 400 mg b.i.d., all grade) | Treatment-related AE leading to death ([1]; 400 mg b.i.d., all grade) | IRR ([1]; 400 mg b.i.d., grade ≥3) | TEAEs leading to death ([1]; 400 mg b.i.d., grade ≥3) | Treatment-related AE leading to death ([1]; 400 mg b.i.d., grade ≥3) | DLT by preferred term: Acute kidney injury ([3]; 100 mg b.i.d.) | DLT by preferred term: Febrile neutropenia ([3]; 100 mg b.i.d.) | DLT by preferred term: Neutropenia ([3]; 100 mg b.i.d.) | DLT by preferred term: Neutrophil count decreased ([3]; 100 mg b.i.d.) | DLT by preferred term: Pneumonitis ([3]; 100 mg b.i.d.) | DLT by preferred term: Pyrexia ([3]; 100 mg b.i.d.) | DLT by preferred term: Rash ([3]; 100 mg b.i.d.) | DLTs per patient: 1 ([3]; 100 mg b.i.d.) | DLTs per patient: 2 ([3]; 100 mg b.i.d.) | DLTs per patient: ≥3 ([3]; 100 mg b.i.d.) | Patients with DLT ([3]; 100 mg b.i.d.) | DLT by preferred term: Acute kidney injury ([3]; 200 mg b.i.d.) | DLT by preferred term: Febrile neutropenia ([3]; 200 mg b.i.d.) | DLT by preferred term: Neutropenia ([3]; 200 mg b.i.d.) | DLT by preferred term: Neutrophil count decreased ([3]; 200 mg b.i.d.) | DLT by preferred term: Pneumonitis ([3]; 200 mg b.i.d.) | DLT by preferred term: Pyrexia ([3]; 200 mg b.i.d.) | DLT by preferred term: Rash ([3]; 200 mg b.i.d.) | DLTs per patient: 1 ([3]; 200 mg b.i.d.) | DLTs per patient: 2 ([3]; 200 mg b.i.d.) | DLTs per patient: ≥3 ([3]; 200 mg b.i.d.) | Patients with DLT ([3]; 200 mg b.i.d.) | DLT by preferred term: Acute kidney injury ([3]; 250 mg b.i.d.) | DLT by preferred term: Febrile neutropenia ([3]; 250 mg b.i.d.) | DLT by preferred term: Neutropenia ([3]; 250 mg b.i.d.) | DLT by preferred term: Neutrophil count decreased ([3]; 250 mg b.i.d.) | DLT by preferred term: Pyrexia ([3]; 250 mg b.i.d.) | DLT by preferred term: Rash ([3]; 250 mg b.i.d.) | DLTs per patient: 2 ([3]; 250 mg b.i.d.) | DLTs per patient: ≥3 ([3]; 250 mg b.i.d.) | DLT by preferred term: Acute kidney injury ([3]; 300 mg b.i.d.) | DLT by preferred term: Febrile neutropenia ([3]; 300 mg b.i.d.) | DLT by preferred term: Neutropenia ([3]; 300 mg b.i.d.) | DLT by preferred term: Neutrophil count decreased ([3]; 300 mg b.i.d.) | DLT by preferred term: Pyrexia ([3]; 300 mg b.i.d.) | DLT by preferred term: Rash ([3]; 300 mg b.i.d.) | DLTs per patient: 2 ([3]; 300 mg b.i.d.) | DLTs per patient: ≥3 ([3]; 300 mg b.i.d.) | DLT by preferred term: Pneumonitis ([3]; 400 mg b.i.d.)
2 (50.0) n (%): TEAE, peposertib related ([1]; 100 mg b.i.d., all grade) | Serious TEAE, peposertib related ([1]; 250 mg b.i.d., all grade) | Immune-related AE ([1]; 250 mg b.i.d., grade ≥3) | Serious TEAE, peposertib related ([1]; 250 mg b.i.d., grade ≥3) | TEAE, peposertib related ([1]; 250 mg b.i.d., grade ≥3)
3 (50.0) n (%): TEAE, peposertib related ([1]; 300 mg b.i.d., all grade)
1 (50.0) n (%): DLT by preferred term: Pneumonitis ([3]; 250 mg b.i.d.) | DLTs per patient: 1 ([3]; 250 mg b.i.d.) | Patients with DLT ([3]; 250 mg b.i.d.)
food delayed peposertib Cmax: Effect of food on peposertib Cmax [2]
1 (16.7) n (%): Serious TEAE, treatment related ([1]; 300 mg b.i.d., all grade) | Serious TEAE, treatment related ([1]; 300 mg b.i.d., grade ≥3)
25.0%: Peposertib-related pneumonitis ([1]; 250 mg b.i.d.)
4 (66.7) n (%): Serious TEAE ([1]; 300 mg b.i.d., all grade) | TEAE, treatment related ([1]; 300 mg b.i.d., all grade) | Serious TEAE ([1]; 300 mg b.i.d., grade ≥3)
7 (63.6) n (%): TEAE ([1]; 200 mg b.i.d., grade ≥3)
10 (90.9) n (%): TEAE, peposertib related ([1]; 200 mg b.i.d., all grade) | TEAE, treatment related ([1]; 200 mg b.i.d., all grade)
only a mild food effect: Food effect [5]
3 (27.3) n (%): Serious TEAE, treatment related ([1]; 200 mg b.i.d., all grade) | Serious TEAE, treatment related ([1]; 200 mg b.i.d., grade ≥3)
75%: Increase in bioavailability versus capsules [4]
2 (33.3) n (%): Immune-related AE ([1]; 300 mg b.i.d., all grade) | TEAEs leading to death ([1]; 300 mg b.i.d., all grade) | Immune-related AE ([1]; 300 mg b.i.d., grade ≥3) | TEAE, treatment related ([1]; 300 mg b.i.d., grade ≥3) | TEAEs leading to death ([1]; 300 mg b.i.d., grade ≥3)
11 (37.9%): Discontinuation of all study treatments due to AEs ([1]; all dose levels)
8 (27.6%): Peposertib-related TEAE: fatigue ([1]; all dose levels)
6 (100.0) n (%): TEAE ([1]; 300 mg b.i.d., all grade)
3 (75.0) n (%): TEAE ([1]; 100 mg b.i.d., all grade) | TEAE, treatment related ([1]; 100 mg b.i.d., all grade) | Immune-related AE ([1]; 250 mg b.i.d., all grade) | Serious TEAE, treatment related ([1]; 250 mg b.i.d., all grade) | TEAE, peposertib related ([1]; 250 mg b.i.d., all grade) | TEAE, treatment related ([1]; 250 mg b.i.d., all grade) | Serious TEAE, treatment related ([1]; 250 mg b.i.d., grade ≥3) | TEAE, treatment related ([1]; 250 mg b.i.d., grade ≥3) | Serious TEAE, peposertib related ([1]; 400 mg b.i.d., all grade) | Serious TEAE, treatment related ([1]; 400 mg b.i.d., all grade) | Serious TEAE, peposertib related ([1]; 400 mg b.i.d., grade ≥3) | Serious TEAE, treatment related ([1]; 400 mg b.i.d., grade ≥3) | Patients with DLT ([3]; 400 mg b.i.d.)
2 n: Serious TEAE: diarrhea ([1]; 250 mg b.i.d.) | Serious TEAE: disease progression ([1]; 300 mg b.i.d.)
6 (54.5) n (%): Serious TEAE ([1]; 200 mg b.i.d., all grade) | Serious TEAE ([1]; 200 mg b.i.d., grade ≥3)
one of nine: Patients with a PR (advanced solid tumors; all patients, response at 200 mg b.i.d.)
11 (100.0) n (%): TEAE ([1]; 200 mg b.i.d., all grade)
4 (100.0) n (%): Serious TEAE ([1]; 250 mg b.i.d., all grade) | TEAE ([1]; 250 mg b.i.d., all grade) | Serious TEAE ([1]; 250 mg b.i.d., grade ≥3) | TEAE ([1]; 250 mg b.i.d., grade ≥3) | Serious TEAE ([1]; 400 mg b.i.d., all grade) | TEAE ([1]; 400 mg b.i.d., all grade) | TEAE, peposertib related ([1]; 400 mg b.i.d., all grade) | TEAE, treatment related ([1]; 400 mg b.i.d., all grade) | Serious TEAE ([1]; 400 mg b.i.d., grade ≥3) | TEAE ([1]; 400 mg b.i.d., grade ≥3) | TEAE, peposertib related ([1]; 400 mg b.i.d., grade ≥3) | TEAE, treatment related ([1]; 400 mg b.i.d., grade ≥3)
5 (83.3) n (%): TEAE ([1]; 300 mg b.i.d., grade ≥3)
4 (36.4) n (%): TEAE, treatment related ([1]; 200 mg b.i.d., grade ≥3)
2 (18.2) n (%): Immune-related AE ([1]; 200 mg b.i.d., all grade) | Immune-related AE ([1]; 200 mg b.i.d., grade ≥3) | TEAE, peposertib related ([1]; 200 mg b.i.d., grade ≥3)
